# From article PMC8401933 (Molecules, 2021)
# What was measured:
# Test in all cases: KINOMEscan binding
# Conditions in all cases: read-out: Percent Control
# [1] = target: T1, RIOK1 (Homo sapiens, UniProt Q9BRS2)
# T1 construct: purchased Eurofins DiscoverX KINOMEscan
# [2] = target: T2, SRPK1 (Homo sapiens, UniProt Q96SB4)
# T2 construct: purchased Eurofins DiscoverX KINOMEscan
# [3] = target: T3, MYLK4 (Homo sapiens, UniProt Q86YV6)
# T3 construct: purchased Eurofins DiscoverX KINOMEscan
# [4] = target: T4, DAPK3 (Homo sapiens, UniProt O43293)
# T4 construct: purchased Eurofins DiscoverX KINOMEscan
# [5] = target: T5, ALK (Homo sapiens, UniProt Q9UM73)
# T5 construct: purchased Eurofins DiscoverX KINOMEscan
# [6] = target: T6, TIE2 (Homo sapiens, UniProt Q02763)
# T6 construct: purchased Eurofins DiscoverX KINOMEscan
# [7] = target: T7, MUSK (Homo sapiens, UniProt O15146)
# T7 construct: purchased Eurofins DiscoverX KINOMEscan
# [8] = target: T8, MEK5 (Homo sapiens, UniProt Q13163)
# T8 construct: purchased Eurofins DiscoverX KINOMEscan
# [9] = target: T9, RIPK5 (Homo sapiens, UniProt Q6XUX3)
# T9 construct: purchased Eurofins DiscoverX KINOMEscan
# [10] = target: T10, PRKCD (Homo sapiens, UniProt Q05655)
# T10 construct: purchased Eurofins DiscoverX KINOMEscan
# [11] = target: T11, CAMK2D (Homo sapiens, UniProt Q13557)
# T11 construct: purchased Eurofins DiscoverX KINOMEscan
# [12] = target: T12, YES (Homo sapiens, UniProt P07947)
# T12 construct: purchased Eurofins DiscoverX KINOMEscan
# [13] = target: T13, ABL1-phosphorylated (Homo sapiens, UniProt P00519)
# T13 construct: purchased Eurofins DiscoverX KINOMEscan
# [14] = target: T14, KIT(L576P) (Homo sapiens, UniProt P10721, L576P)
# T14 construct: purchased Eurofins DiscoverX KINOMEscan
# [15] = target: T15, SIK2 (Homo sapiens, UniProt Q9H0K1)
# T15 construct: purchased Eurofins DiscoverX KINOMEscan
# [16] = target: T16, VEGFR2 (Homo sapiens, UniProt P35968)
# T16 construct: purchased Eurofins DiscoverX KINOMEscan
# [17] = target: T17, SGK3 (Homo sapiens, UniProt Q96BR1)
# T17 construct: purchased Eurofins DiscoverX KINOMEscan
# [18] = target: T18, CSNK1A1 (Homo sapiens, UniProt P48729)
# T18 construct: purchased Eurofins DiscoverX KINOMEscan
# [19] = target: T19, FGR (Homo sapiens, UniProt P09769)
# T19 construct: purchased Eurofins DiscoverX KINOMEscan
# [20] = target: T20, WNK3 (Homo sapiens, UniProt Q9BYP7)
# T20 construct: purchased Eurofins DiscoverX KINOMEscan
# [21] = target: T21, TAOK2 (Homo sapiens, UniProt Q9UL54)
# T21 construct: purchased Eurofins DiscoverX KINOMEscan
# [22] = target: T22, BRK (Homo sapiens, UniProt Q13882)
# T22 construct: purchased Eurofins DiscoverX KINOMEscan
# [23] = target: T23, DYRK2 (Homo sapiens, UniProt Q92630)
# T23 construct: purchased Eurofins DiscoverX KINOMEscan
# [24] = target: T24, FLT4 (Homo sapiens, UniProt P35916)
# T24 construct: purchased Eurofins DiscoverX KINOMEscan
# [25] = target: T25, MEK2 (Homo sapiens, UniProt P36507)
# T25 construct: purchased Eurofins DiscoverX KINOMEscan
# [26] = target: T26, RIPK1 (Homo sapiens, UniProt Q13546)
# T26 construct: purchased Eurofins DiscoverX KINOMEscan
# [27] = target: T27, SRC (Homo sapiens, UniProt P12931)
# T27 construct: purchased Eurofins DiscoverX KINOMEscan
# [28] = target: T28, ABL1(H396P)-nonphosphorylated (Homo sapiens, UniProt P00519, H396P)
# T28 construct: purchased Eurofins DiscoverX KINOMEscan
# [29] = target: T29, CDKL3 (Homo sapiens, UniProt Q8IVW4)
# T29 construct: purchased Eurofins DiscoverX KINOMEscan
# [30] = target: T30, KIT(V559D,V654A) (Homo sapiens, UniProt P10721, V559D/V654A)
# T30 construct: purchased Eurofins DiscoverX KINOMEscan
# [31] = target: T31, MTOR (Homo sapiens, UniProt P42345)
# T31 construct: purchased Eurofins DiscoverX KINOMEscan
# [32] = target: T32, PLK4 (Homo sapiens, UniProt O00444)
# T32 construct: purchased Eurofins DiscoverX KINOMEscan
# [33] = target: T33, TRPM6 (Homo sapiens, UniProt Q9BX84)
# T33 construct: purchased Eurofins DiscoverX KINOMEscan
# [34] = target: T34, MYO3A (Homo sapiens, UniProt Q8NEV4)
# T34 construct: purchased Eurofins DiscoverX KINOMEscan
# [35] = target: T35, ASK2 (Homo sapiens, UniProt O95382)
# T35 construct: purchased Eurofins DiscoverX KINOMEscan
# [36] = target: T36, IRAK3 (Homo sapiens, UniProt Q9Y616)
# T36 construct: purchased Eurofins DiscoverX KINOMEscan
# [37] = target: T37, NEK11 (Homo sapiens, UniProt Q8NG66)
# T37 construct: purchased Eurofins DiscoverX KINOMEscan
# [38] = target: T38, CAMK1 (Homo sapiens, UniProt Q14012)
# T38 construct: purchased Eurofins DiscoverX KINOMEscan
# [39] = target: T39, CAMK1D (Homo sapiens, UniProt Q8IU85)
# T39 construct: purchased Eurofins DiscoverX KINOMEscan
# [40] = target: T40, CAMK4 (Homo sapiens, UniProt Q16566)
# T40 construct: purchased Eurofins DiscoverX KINOMEscan
# [41] = target: T41, MARK1 (Homo sapiens, UniProt Q9P0L2)
# T41 construct: purchased Eurofins DiscoverX KINOMEscan
# [42] = target: T42, PIK3CA(I800L) (Homo sapiens, UniProt P42336, I800L)
# T42 construct: purchased Eurofins DiscoverX KINOMEscan
# [43] = target: T43, WEE1 (Homo sapiens, UniProt P30291)
# T43 construct: purchased Eurofins DiscoverX KINOMEscan
# [44] = target: ROCK2 (Homo sapiens, UniProt O75116); parameters: purchased Eurofins DiscoverX (KINOMEscan service)
# T17 sequence (Q96BR1 whole entry): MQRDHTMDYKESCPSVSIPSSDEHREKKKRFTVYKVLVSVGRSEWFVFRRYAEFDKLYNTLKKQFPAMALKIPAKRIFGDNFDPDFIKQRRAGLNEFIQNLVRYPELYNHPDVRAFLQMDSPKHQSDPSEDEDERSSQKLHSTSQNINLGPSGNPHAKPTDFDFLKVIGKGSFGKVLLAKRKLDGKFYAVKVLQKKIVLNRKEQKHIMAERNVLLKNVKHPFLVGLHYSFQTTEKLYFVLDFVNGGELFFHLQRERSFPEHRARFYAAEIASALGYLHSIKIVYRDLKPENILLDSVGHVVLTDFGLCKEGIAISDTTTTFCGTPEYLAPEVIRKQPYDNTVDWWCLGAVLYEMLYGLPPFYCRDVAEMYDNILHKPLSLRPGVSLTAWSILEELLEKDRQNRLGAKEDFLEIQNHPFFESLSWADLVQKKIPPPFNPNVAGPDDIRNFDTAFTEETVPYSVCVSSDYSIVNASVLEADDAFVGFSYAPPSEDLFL
# T23 sequence (Q92630 whole entry): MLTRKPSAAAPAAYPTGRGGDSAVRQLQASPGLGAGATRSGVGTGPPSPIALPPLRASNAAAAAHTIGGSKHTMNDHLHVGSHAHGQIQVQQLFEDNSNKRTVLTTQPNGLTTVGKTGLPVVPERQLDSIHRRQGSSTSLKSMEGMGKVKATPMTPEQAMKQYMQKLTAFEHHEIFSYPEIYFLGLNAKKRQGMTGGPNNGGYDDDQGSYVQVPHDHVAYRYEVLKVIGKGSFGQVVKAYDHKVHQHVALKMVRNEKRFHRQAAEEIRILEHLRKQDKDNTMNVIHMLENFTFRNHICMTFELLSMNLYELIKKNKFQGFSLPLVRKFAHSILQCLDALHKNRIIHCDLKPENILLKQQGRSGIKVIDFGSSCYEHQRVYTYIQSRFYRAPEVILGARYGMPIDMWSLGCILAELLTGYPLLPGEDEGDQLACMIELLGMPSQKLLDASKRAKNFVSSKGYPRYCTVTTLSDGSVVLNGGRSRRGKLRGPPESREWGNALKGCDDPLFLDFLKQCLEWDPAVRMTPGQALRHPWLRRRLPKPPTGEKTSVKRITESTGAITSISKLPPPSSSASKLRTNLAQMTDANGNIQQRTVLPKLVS
# T24 sequence (P35916 25-1363): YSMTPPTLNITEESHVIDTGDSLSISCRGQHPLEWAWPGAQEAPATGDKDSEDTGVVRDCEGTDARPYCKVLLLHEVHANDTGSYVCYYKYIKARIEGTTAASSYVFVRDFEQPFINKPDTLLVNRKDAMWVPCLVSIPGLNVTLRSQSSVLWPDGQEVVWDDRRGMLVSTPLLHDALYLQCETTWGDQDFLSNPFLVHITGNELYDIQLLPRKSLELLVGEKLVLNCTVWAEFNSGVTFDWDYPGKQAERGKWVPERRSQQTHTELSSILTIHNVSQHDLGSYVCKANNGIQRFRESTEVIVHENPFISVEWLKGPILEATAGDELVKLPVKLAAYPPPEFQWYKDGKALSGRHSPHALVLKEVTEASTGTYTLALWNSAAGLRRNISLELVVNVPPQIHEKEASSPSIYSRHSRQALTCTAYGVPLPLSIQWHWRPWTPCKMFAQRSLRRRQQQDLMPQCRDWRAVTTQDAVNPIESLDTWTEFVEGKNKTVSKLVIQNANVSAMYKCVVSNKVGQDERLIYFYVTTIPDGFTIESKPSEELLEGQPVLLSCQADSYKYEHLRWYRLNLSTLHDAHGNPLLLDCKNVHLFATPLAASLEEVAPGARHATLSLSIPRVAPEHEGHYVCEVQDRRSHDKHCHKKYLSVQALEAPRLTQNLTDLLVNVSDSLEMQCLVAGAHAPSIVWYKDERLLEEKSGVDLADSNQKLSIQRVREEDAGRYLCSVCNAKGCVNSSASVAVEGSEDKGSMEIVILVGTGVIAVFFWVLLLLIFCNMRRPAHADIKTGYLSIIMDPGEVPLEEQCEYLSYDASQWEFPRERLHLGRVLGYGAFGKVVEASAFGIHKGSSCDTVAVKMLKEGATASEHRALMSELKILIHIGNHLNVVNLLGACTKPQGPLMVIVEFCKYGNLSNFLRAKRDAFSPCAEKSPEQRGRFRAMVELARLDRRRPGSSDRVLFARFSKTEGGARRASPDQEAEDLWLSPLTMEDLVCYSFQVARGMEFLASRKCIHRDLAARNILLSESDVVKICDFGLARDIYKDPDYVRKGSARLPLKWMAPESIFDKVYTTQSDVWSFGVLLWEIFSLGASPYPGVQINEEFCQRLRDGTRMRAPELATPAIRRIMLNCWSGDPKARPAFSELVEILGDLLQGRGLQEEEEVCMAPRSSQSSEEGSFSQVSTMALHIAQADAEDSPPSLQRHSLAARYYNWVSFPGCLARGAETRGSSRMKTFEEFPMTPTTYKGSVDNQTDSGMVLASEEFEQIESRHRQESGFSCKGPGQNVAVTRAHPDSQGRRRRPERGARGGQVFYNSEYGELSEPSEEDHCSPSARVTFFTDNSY
# T6 sequence (Q02763 23-1124): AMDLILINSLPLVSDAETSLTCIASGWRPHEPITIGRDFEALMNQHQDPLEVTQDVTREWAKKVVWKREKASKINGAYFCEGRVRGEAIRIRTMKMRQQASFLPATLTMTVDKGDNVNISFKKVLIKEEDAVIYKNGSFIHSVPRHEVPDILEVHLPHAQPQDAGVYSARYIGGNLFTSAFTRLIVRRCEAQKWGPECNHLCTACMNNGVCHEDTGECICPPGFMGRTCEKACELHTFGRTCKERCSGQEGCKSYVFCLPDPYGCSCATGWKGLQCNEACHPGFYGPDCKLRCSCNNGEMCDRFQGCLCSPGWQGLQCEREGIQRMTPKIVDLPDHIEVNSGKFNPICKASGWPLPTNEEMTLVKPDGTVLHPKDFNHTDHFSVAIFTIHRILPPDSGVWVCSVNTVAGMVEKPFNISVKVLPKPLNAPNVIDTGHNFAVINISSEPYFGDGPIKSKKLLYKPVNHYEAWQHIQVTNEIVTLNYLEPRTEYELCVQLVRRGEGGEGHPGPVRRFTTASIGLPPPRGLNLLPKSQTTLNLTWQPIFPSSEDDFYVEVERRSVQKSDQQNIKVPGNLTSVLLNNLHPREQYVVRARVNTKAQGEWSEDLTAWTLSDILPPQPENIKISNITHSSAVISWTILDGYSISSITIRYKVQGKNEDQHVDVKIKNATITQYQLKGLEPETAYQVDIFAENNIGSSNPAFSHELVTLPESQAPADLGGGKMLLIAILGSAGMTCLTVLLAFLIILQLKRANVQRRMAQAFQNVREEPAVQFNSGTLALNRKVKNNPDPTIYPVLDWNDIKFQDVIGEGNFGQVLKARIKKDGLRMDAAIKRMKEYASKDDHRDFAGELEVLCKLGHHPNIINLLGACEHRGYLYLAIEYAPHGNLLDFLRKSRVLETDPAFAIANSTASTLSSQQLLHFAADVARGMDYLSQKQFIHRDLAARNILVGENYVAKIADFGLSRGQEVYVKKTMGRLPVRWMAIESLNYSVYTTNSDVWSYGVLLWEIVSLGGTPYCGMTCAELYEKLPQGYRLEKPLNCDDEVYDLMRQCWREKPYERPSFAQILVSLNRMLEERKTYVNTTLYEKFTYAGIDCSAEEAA
# T21 sequence (Q9UL54 whole entry): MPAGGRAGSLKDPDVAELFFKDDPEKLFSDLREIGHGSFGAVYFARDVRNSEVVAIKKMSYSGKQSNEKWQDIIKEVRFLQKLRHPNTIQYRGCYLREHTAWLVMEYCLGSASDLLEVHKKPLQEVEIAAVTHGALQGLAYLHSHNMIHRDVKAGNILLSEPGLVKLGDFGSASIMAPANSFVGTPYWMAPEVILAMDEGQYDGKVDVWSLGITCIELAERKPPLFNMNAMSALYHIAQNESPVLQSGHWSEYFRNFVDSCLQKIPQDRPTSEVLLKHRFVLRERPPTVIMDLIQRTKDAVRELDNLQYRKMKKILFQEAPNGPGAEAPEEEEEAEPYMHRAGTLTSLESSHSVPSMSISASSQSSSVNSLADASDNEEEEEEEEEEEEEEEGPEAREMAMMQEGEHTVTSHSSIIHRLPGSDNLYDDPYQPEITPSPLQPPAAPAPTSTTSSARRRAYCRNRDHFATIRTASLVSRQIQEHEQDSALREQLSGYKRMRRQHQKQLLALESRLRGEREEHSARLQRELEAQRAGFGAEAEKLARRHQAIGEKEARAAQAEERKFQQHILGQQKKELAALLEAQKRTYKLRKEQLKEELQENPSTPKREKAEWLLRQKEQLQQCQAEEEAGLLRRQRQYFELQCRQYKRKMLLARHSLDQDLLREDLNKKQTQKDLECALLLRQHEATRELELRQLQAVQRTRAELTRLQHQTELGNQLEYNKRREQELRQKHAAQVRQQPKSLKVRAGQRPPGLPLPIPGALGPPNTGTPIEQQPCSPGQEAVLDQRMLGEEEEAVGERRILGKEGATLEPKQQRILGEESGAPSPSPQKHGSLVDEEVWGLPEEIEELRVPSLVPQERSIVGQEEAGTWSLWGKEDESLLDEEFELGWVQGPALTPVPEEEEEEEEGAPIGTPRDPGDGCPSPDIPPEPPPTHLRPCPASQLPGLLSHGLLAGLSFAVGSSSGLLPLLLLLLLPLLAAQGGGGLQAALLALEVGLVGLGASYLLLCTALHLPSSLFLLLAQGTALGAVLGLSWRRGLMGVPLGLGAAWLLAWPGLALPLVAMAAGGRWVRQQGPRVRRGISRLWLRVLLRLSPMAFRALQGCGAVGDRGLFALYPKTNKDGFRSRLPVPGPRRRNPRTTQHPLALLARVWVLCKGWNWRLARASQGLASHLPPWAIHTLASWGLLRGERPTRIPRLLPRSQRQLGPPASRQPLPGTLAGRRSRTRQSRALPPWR
compound,measurement,setting,value
"CC(C)NC(=O)COc1cccc(-c2nc(Nc3ccc4[nH]ncc4c3)c3ccccc3n2)c1 [KD025, 2-(3-(4-((1H-indazol-5-yl)amino)quinazolin-2-yl)phenoxy)-N-isopropylacetamide]",remaining binding at 10 µM,[1],6.2%
same,remaining binding at 10 µM,[2],7%
same,remaining binding at 10 µM,[3],17%
same,remaining binding at 10 µM,[4],35%
same,remaining binding at 10 µM,[5],54%
same,remaining binding at 10 µM,[6],55%
same,remaining binding at 10 µM,[7],59%
same,remaining binding at 10 µM,[8],63%
same,remaining binding at 10 µM,[9],64%
same,remaining binding at 10 µM,[10],70%
same,remaining binding at 10 µM,[11],71%
same,remaining binding at 10 µM,[12],71%
same,remaining binding at 10 µM,[13],73%
same,remaining binding at 10 µM,[14],74%
same,remaining binding at 10 µM,[15],74%
same,remaining binding at 10 µM,[16],76%
same,remaining binding at 10 µM,[17],79%
same,remaining binding at 10 µM,[18],80%
same,remaining binding at 10 µM,[19],82%
same,remaining binding at 10 µM,[20],82%
same,remaining binding at 10 µM,[21],83%
same,remaining binding at 10 µM,[22],86%
same,remaining binding at 10 µM,[23],86%
same,remaining binding at 10 µM,[24],86%
same,remaining binding at 10 µM,[25],86%
same,remaining binding at 10 µM,[26],86%
same,remaining binding at 10 µM,[27],87%
same,remaining binding at 10 µM,[28],90%
same,remaining binding at 10 µM,[29],91%
same,remaining binding at 10 µM,[30],92%
same,remaining binding at 10 µM,[31],92%
same,remaining binding at 10 µM,[32],93%
same,remaining binding at 10 µM,[33],93%
same,remaining binding at 10 µM,[34],94%
same,remaining binding at 10 µM,[35],95%
same,remaining binding at 10 µM,[36],96%
same,remaining binding at 10 µM,[37],99%
same,remaining binding at 10 µM,[38],100%
same,remaining binding at 10 µM,[39],100%
same,remaining binding at 10 µM,[40],100%
same,remaining binding at 10 µM,[41],100%
same,remaining binding at 10 µM,[42],100%
same,remaining binding at 10 µM,[43],100%
same,remaining binding at 10 µM,[44],0.05%
